Patent US20210163453A1, “DERIVATIVES OF PAPAVERINE THAT ARE EFFECTIVE HYPOXIC TUMOR RADIOSENSITIZERS” (Ohio State Innovation Foundation, priority 2018, published 2021)
pIC50: −log10 of the molar value. Counter-ions that a name gives are not always drawn.

Tests used:
mitochondrial complex 1 = assay: Seahorse OCR inhibition of PPV derivatives, normalized to PPV; type: cell-based
Description: (§1) FIGS. 7A-7D show OCR and cellular toxicity data. […]. Bars represent mean OCR and PDE10 inhibitory activities from at least 5 (OCR) or 3 (PDE) replicates. All experiments were repeated at least twice. […] Values are mean+−SEM.
(§2) Seahorse analysis of the OCR. Oxygen consumption rate (OCR) was measured using Seahorse XF96 Flux Analyzer (Agilent Technologies). The cells were seeded to attach overnight, wells were washed with pre-warmed XF Calibrant (Agilent Technologies) and the replaced with unbuffered Assay Medium (pH 7.4, 5 mM glucose, 1 mM L-glutamine). The plates were incubated at 37° C. in a CO2-free incubator for 2 hours prior to assay. For succinate rescue assay, cells were permeabilized using XF Plasma Membrane Permeabilizer Reagent (XF PMP, Agilent Technologies) according to the manufacturer's instructions. The OCR rate was measured in 1× Mitochondrial Assay Solution (MAS) (70 mM sucrose, 220 mM mannitol, 10 mM KH2PO4, 5 mM MgCl2, 2 mM Hepes, 0.6% (w/v) fatty acid-free BSA and 1 mM EGTA; pH 7.4). After baseline oxygenation was established, 1 μM rotenone or 10 μM PPV was injected at time A, followed by 5 mM succinate at time B. Error bars represent standard deviation. For the washout experiment, EO771 cells were seeded overnight, then treated with 10 μM PPV or 1 μM rotenone 3 hours prior to OCR measurement. Media was replaced 1 and 2 hours before measurement and OCR reported.
Because PPV's effect on mitochondrial function is independent of cAMP levels it was reasoned that there are two activities in PPV, one inhibiting complex 1 and one inhibiting PDE10A that may reside in different parts of the molecule. The structure activity relationship of PPV relative to two assays was assessed: inhibition of cellular OCR by Seahorse, and inhibition of PDE10A by purified enzyme activity in multiwell plate (PDE10A activity assay kit, BPS Bioscience). Because PPV can compete with rotenone as complex 1 inhibitors, it was reasoned that they may be binding the same site and therefore the structures would be similar relative to the mitochondrial binding target. […] Because the top was a planar structure similar to that of rotenone, and they compete with each other for the same binding pocket on complex 1 (FIG. 10) the lower portion of the molecule and how it may resemble rotenone were investigated in more detail. It was established that flexible linkage was preferred for mitochondrial activity and bulky adducts to the lower benzene ring may block it (FIG. 7C). […] These lead compounds were synthesized from commercial precursors and purified on silica gel column. Structures were confirmed by ^1H NMR and found to be >95% pure by HPLC.

PDE10A = molecular target: T1, PDE10A (Homo sapiens, UniProt Q9Y233); assay: PDE10A enzymatic assay (PDE10A activity assay kit, BPS Bioscience); type: biochemical
T1 construct: purchased BPS Bioscience
T1 sequence (Q9Y233 267-1055): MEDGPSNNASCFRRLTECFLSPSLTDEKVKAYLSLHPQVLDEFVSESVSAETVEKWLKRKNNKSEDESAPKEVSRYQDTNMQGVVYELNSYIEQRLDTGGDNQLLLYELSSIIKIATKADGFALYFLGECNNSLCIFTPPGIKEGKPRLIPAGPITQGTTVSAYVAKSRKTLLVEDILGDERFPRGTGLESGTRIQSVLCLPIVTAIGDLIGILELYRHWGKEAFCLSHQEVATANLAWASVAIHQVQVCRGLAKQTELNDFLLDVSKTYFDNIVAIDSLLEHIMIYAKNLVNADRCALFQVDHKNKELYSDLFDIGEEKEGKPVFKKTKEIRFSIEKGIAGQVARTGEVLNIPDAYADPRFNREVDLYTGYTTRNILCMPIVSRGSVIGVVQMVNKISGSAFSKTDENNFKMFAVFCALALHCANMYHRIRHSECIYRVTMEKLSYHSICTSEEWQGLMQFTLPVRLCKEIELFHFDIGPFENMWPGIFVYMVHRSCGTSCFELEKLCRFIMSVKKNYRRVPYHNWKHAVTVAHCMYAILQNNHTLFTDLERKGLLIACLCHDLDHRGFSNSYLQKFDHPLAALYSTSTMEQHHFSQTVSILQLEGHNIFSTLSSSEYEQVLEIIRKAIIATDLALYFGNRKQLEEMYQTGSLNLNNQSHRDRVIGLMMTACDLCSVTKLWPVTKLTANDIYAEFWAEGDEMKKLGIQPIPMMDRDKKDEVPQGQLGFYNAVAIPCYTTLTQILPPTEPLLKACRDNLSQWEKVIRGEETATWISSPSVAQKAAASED
Description: FIGS. 7A-7D show OCR and cellular toxicity data. […] Bars represent mean OCR and PDE10 inhibitory activities from at least 5 (OCR) or 3 (PDE) replicates. All experiments were repeated at least twice. […] Values are mean+−SEM. […]
The structure activity relationship of PPV relative to two assays was assessed: inhibition of cellular OCR by Seahorse, and inhibition of PDE10A by purified enzyme activity in multiwell plate (PDE10A activity assay kit, BPS Bioscience). […] These lead compounds were synthesized from commercial precursors and purified on silica gel column.

A549 cells = assay: Seahorse OCR in A549 cells (dose response, IC50, washout); type: cell-based, Human; settings: Homo sapiens; A549 cells by Seahorse, n=5 replicates; read-out: mitochondrial IC50 (OCR IC50)
[1] = Cellular toxicity of PPV derivatives by trypan blue; type: cell-based; settings: 10 uM, 72 h
Description: as §1
Experimental: Cell lines. All cell lines were purchased from the American Type Culture Collection (ATCC) and grown DMEM (Corning) supplemented with 10% FBS (Seradigm) and 1% Penicillin/Streptomycin (Fisher Bioreagents) at 37° C. in 5% CO2. Cells were treated with inhibitors papaverine hydrochloride (Sigma-Aldrich), rotenone (Sigma-Aldrich), piericidin A (Santa Cruz), capsaicin (Sigma-Aldrich), antimycin A (Sigma-Aldrich) and succinic acid disodium salt (Sigma-Aldrich). Cell viability was assessed by trypan blue exclusion.

EO771 tumors [2] = assay: Pimonidazole staining, hypoxic fraction of EO771 tumors; type: in vivo, mice; settings: orthotopic EO771, immune-competent mice, 2 mg per kg
Description: (§3) P values were calculated against thigh muscle with two-tailed two-sample t test. FIG. 3B-3C show normalized tissue oxygenation in EO771 (b) or A549 (c) tumor-bearing mice after injection of 2 mg/kg PPV or vehicle saline (readings taken every minute, and curve is average of 5 traces). P value was analyzed by linear mixed model with autoregressive correlation structure at T=30-40 minutes. […] Values are mean area covered by pimonidazole-positive cells evaluated from 20 images per animal+−SEM. P value was calculated with two-tailed two-sample t test. […] Curves represent mean tumor volumes+−SEM. P values were calculated against XRT with two-tailed two-sample t test.
(§4) Bar graphs represent the mean area covered by pimonidazole-positive cells evaluated from 20 images per animal+−standard error of the mean. P value was calculated against control with two-tailed two-sample t test. […] Mean volumes+−SEM. P values were calculated against XRT with two-tailed two-sample t test. *P<0.05; **P<0.01; ***P<0.001; ****P<0.0001; n.s., not significant.
Pimonidazole staining. […] […] […] The hypoxic fraction of each tumor was quantified by thresholding signal at 50% of the maximum signal on control sections. Area covered by pimonidazole-positive cells was evaluated from 20 images per animal and averaged. Error bars represent the standard deviation.

EO771 tumors [3] = assay: Tumor growth delay of EO771 tumors with radiation (XRT); type: in vivo, mice; settings: heterotopic EO771 flank tumors, nude mice, 2 mg/kg 35 minutes prior to 5 Gy
Description: as §3
FIGS. 4A-4G show tumor growth before and after radiosensitization with PPV. FIG. 4A-4B show in vitro radiation survival assessment of A549 cell line treated with 10 μm PPV in normoxia (FIG. 4A) and anoxia (FIG. 4B). […] Values represent averaged colony counts+−standard deviation. […] Values are mean tumor volumes+−SEM. […] Values are mean tumor volumes+−SEM. FIG. 4E-4F show tumor growth delay. When tumors reached 4-fold volume increase, groups receiving no treatment or PPV only (FIG. 4E); and XRT only or PPV followed by XRT (FIG. 4F), tumor weights were compared. Values are mean tumor weights+−SEM (n=8). P values were calculated with two-tailed two-sample t test. FIG. 4G are related to FIG. 4E-4F tumor growth delay. Representative images of orthotopic EO771 tumors harvested on day 11 after treatment with XRT (top) or 2 mg/kg PPV followed by XRT (bottom). *P<0.05; **P<0.01; ***P<0.001; ****P<0.0001; n.s., not significant.
as §4
Tumor Growth kinetics. 2×10^6 EO771 or 5×10^6 A549 cells were injected s.c. into the flanks of 6-week old female immunocompetent C57/B6 (EO771) or immunocompromised nu/nu (A549) mice. Caliper measurements of opposing diameter were used to calculate the tumor volumes. Upon reaching […], the tumors were visualized by cone beam CT and treatment plans calculated using SARRP software. X-rays were delivered with a single beam delivering 5 Gy using the Small Animal Research Radiation Platform (SARRP, Xstrahl). Tumor volumes were measured until the post treatment volume increased 3-fold. Error bars represent standard deviation.
Both models of transplanted tumors that were used for the oxygenation experiments of papaverine's effect on radiation response in vivo were investigated. The murine breast cancer line EO771 that is syngeneic with the BL6 strain of mice was used and transplanted it orthotopically into the mammary fat pad of immune-competent mice. Also used was the human A549 lung adenocarcinoma line that was transplanted into the flank of immune-deficient mice. The breast cancers grew to approximately 150 mm^3 and were then randomized to receive either no treatment, a single dose of either 5 Gy, or papaverine at 2 mg/kg followed 30-40 minutes later by 5 Gy.

Panc1 cells = assay: Seahorse OCR in Panc1 cell line; type: cell-based, Human; settings: increasing concentrations (sildenafil citrate 0, 5, 10, 20; 8-Bromo-cAMP 0, 10, 20)
Description: FIGS. 7A-7D show OCR and cellular toxicity data. […] Bars represent mean OCR and PDE10 inhibitory activities from at least 5 (OCR) or 3 (PDE) replicates. All experiments were repeated at least twice. […] Values are mean+−SEM.
as §2

COc1cc2ccnc(Cc3cc(C)cc(C)c3)c2cc1OC [SMV-23]
Inhibitory activity OCR % of PPV (mitochondrial complex 1; Seahorse, OCR inhibition at 10 μM concentration, normalized to PPV): 20.37 % of PPV
complex 1 activity compared to PPV (mitochondrial complex 1; compared to PPV): 20%
IC20 (PDE10A; PDE10A2 enzymatic assay, n=3 replicates, read-out: PDE IC20 (PDE10A IC20)): 0.5 µM
Inhibitory activity PDE10A % of PPV (PDE10A; PDE10A inhibition at 1 μM, normalized to PPV): 121.49 % of PPV
PDE10 activity compared to PPV (PDE10A; compared to PPV): 125%
pIC50 (A549 cells): 4.03
cellular toxicity in vitro [1]: Neither of these compounds shows cellular toxicity
tumor hypoxia by pimonidazole staining (EO771 tumors [2]): no effect on hypoxia
growth delay compared to radiation alone (EO771 tumors [3]): no increase in growth delay

CCCc1nn(C)c2c(=O)[nH]c(-c3cc(S(=O)(=O)N4CCN(C)CC4)ccc3OCC)nc12 [sildenafil citrate]
effect on OCR (Panc1 cells): no effect
